Activity calls are given as the source filed them. No cut-off for these calls is given here.
How the values were obtained:
[1] = MRT in Sprague-Dawley rat at 25 nmol/kg, sc by LC-MS/MS analysis; type: ADME, organism-based; conditions: in vivo
BRIN-BD11 = experiment: Insulinotropic activity in rat BRIN-BD11 cells assessed as increase in insulin secretion incubated for 20 mins by radioimmunoassay; type: functional, cell-based; conditions: DDE = dose-dependent effect
Mus musculus [2] = experiment: Anti-diabesity activity against db/db mouse assessed as reduction in HbA1c level at 25 nmol/kg, sc administered every 2 days and measured on day 43; type: functional, organism-based; conditions: time 43.0 day
Mus musculus [3] = experiment: Anti-diabesity activity in DIO C57BL/6 mouse assessed as reduction in body weight at 25 nmol/kg, sc administered every 2 days for 10 days; type: functional; conditions: C57BL/6, 240 h, time 10 day
Mus musculus [4] = experiment: Anti-diabesity activity against db/db mouse assessed as improvement in glucose tolerance at 25 nmol/kg, sc administered every 2 days for 12 weeks by OGTT; type: functional, organism-based
[5] = Pancreatic insult activity in DIO C57BL/6 mouse assessed as increase in amylase level in plasma at 100 nmol/kg, sc administered once daily for 7 days; type: toxicity, organism-based; conditions: in vivo, 168 h, time 7 day
Mus musculus [6] = experiment: Anti-diabesity activity against db/db mouse assessed as reduction in fasting blood glucose level at 25 nmol/kg, sc administered every 2 days for 12 weeks; type: functional, organism-based
[7] = Renal toxicity in db/db mouse assessed as blood urea nitrogen level at 100 nmol/kg, sc administered once daily for 7 days; type: organism-based; conditions: in vivo, 168 h, time 7 day
Mus musculus [8] = experiment: Anorectic activity in ICR mouse assessed as decrease in food intake at 25 nmol/kg, ip and measured after 24 hrs; type: functional, organism-based
Mus musculus [9] = experiment: Anti-diabesity activity against db/db mouse assessed as improvement in glucose tolerance at 25 nmol/kg, sc administered every 2 days for 3 weeks by OGTT; type: functional, organism-based; conditions: time 21.0 day
Mus musculus [10] = experiment: Anti-diabesity activity in DIO C57BL/6 mouse assessed as reduction in body weight at 100 nmol/kg, sc administered once daily for 7 days; type: functional; conditions: C57BL/6, 168 h, time 7 day
Mus musculus [11] = experiment: Anti-diabesity activity against db/db mouse assessed as increase in insulin sensitivity by measuring reduction in plasma insulin level at 25 nmol/kg, sc administered every 2 days for 12 weeks by ELISA; type: functional, organism-based
[12] = Cmax in Sprague-Dawley rat at 25 nmol/kg, sc by LC-MS/MS analysis; type: ADME, organism-based; parameters: dose 25 nmol/kg, route sc; conditions: in vivo
Mus musculus [13] = experiment: Hypoglycemic activity in db/db mouse assessed as improvement in glucose tolerance at 25 nmol/kg, ip administered 30 min before oral glucose administration and measured upto 120 mins by OGTT; type: functional, organism-based
[14] = Hepatotoxicity in db/db mouse assessed as aspartate aminotransferase level in plasma at 25 nmol/kg, sc administered every 2 days for 12 weeks; type: toxicity, organism-based; conditions: in vivo, 2016 h
[15] = Pancreatic insult activity in DIO C57BL/6 mouse assessed as amylase level in serum at 25 nmol/kg, sc administered every 2 days for 3 weeks; type: toxicity, organism-based; conditions: in vivo, 504 h, time 21 day
Mus musculus [16] = experiment: Anti-diabesity activity against DIO C57BL/6 mouse assessed as decrease in fat mass at 25 nmol/kg, sc administered every 2 days for 3 weeks; type: functional, organism-based; conditions: time 21.0 day
Mus musculus [17] = experiment: Anti-diabesity activity in DIO C57BL/6 mouse assessed as improvement in insulin sensitivity at 25 nmol/kg, sc administered every 2 days for 10 days by insulin tolerance test; type: functional, organism-based; conditions: time 10.0 day
Mus musculus [18] = experiment: Anti-diabesity activity against DIO C57BL/6 mouse assessed as reduction in body weight at 25 nmol/kg, sc administered every 2 days for 3 weeks; type: functional; conditions: C57BL/6, 504 h, time 21 day
[19] = Hepatotoxicity in DIO C57BL/6 mouse assessed as alanine aminotransferase level in serum at 25 nmol/kg, sc administered every 2 days for 3 weeks; type: toxicity, organism-based; conditions: in vivo, 504 h, time 21 day
[20] = molecular target: T1, Cholecystokinin receptor type A (Homo sapiens, UniProt P32238); experiment: Agonist activity at human CCK1R expressed in HEK293 cells assessed as ERK1/2 phosphorylation incubated for 5 mins by AlphaScreen assay; type: functional, cell-based; conditions: hek293
T1 sequence (P32238 whole entry): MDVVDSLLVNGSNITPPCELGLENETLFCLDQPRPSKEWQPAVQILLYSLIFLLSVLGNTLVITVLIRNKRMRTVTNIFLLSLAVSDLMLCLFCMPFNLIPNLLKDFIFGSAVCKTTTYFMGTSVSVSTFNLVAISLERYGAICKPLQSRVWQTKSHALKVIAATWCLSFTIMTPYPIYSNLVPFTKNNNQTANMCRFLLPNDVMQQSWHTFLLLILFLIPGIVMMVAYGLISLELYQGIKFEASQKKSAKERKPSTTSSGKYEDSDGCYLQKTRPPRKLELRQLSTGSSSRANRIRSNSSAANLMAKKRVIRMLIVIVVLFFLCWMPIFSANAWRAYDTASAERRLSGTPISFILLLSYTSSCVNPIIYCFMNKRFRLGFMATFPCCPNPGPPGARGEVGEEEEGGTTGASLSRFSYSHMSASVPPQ

Mus musculus [21] = experiment: Hypoglycemic activity in db/db mouse assessed as reduction in glucose excursion at 25 nmol/kg, ip administered 30 min before oral glucose administration and measured upto 120 mins by OGTT; type: functional, organism-based
Mus musculus [22] = experiment: Anti-diabesity activity in db/db mouse assessed as reduction in body weight at 100 nmol/kg, sc administered once daily for 7 days; type: functional, organism-based; conditions: time 7.0 day
Mus musculus [23] = experiment: Anti-diabesity activity against DIO C57BL/6 mouse assessed as increase in insulin sensitivity by measuring reduction in circulating insulin levels at 25 nmol/kg, sc administered every 2 days for 3 weeks by ELISA; type: functional, organism-based; conditions: time 21.0 day
[24] = Renal toxicity in DIO C57BL/6 mouse assessed as blood urea nitrogen level at 100 nmol/kg, sc administered once daily for 7 days; type: organism-based; conditions: in vivo, 168 h, time 7 day
[25] = AUC (0 to infinity) in Sprague-Dawley rat at 25 nmol/kg, iv by LC-MS/MS analysis; type: ADME, organism-based; parameters: time infinity, dose 25 nmol/kg, route iv; conditions: in vivo
Mus musculus [26] = experiment: Anti-diabesity activity in db/db mouse assessed as decrease in cumulative food intake at 100 nmol/kg, sc administered once daily for 7 days; type: functional, organism-based; conditions: time 7.0 day
Mus musculus [27] = experiment: Hypoglycemic activity in sc dosed non-fasted db/db mouse assessed as reduction in blood glucose level measured upto 48 hrs; type: functional, organism-based; conditions: dose 10-100 nmol/kg, DDE = dose-dependent effect
[28] = Renal toxicity in DIO C57BL/6 mouse assessed as creatinine level in serum at 25 nmol/kg, sc administered every 2 days for 3 weeks; type: organism-based; conditions: in vivo, 504 h, time 21 day
Mus musculus [29] = experiment: Anti-diabesity activity against db/db mouse assessed as reduction in fasting blood glucose level at 25 nmol/kg, sc administered every 2 days for 6 weeks followed by saline treatment for 6 weeks and measured during second 6 weeks; type: functional, organism-based
[30] = Half life in Sprague-Dawley rat at 25 nmol/kg, iv by LC-MS/MS analysis; type: ADME, organism-based; conditions: in vivo
[31] = Renal toxicity in db/db mouse assessed as blood urea nitrogen level in serum at 25 nmol/kg, sc administered every 2 days for 12 weeks; type: organism-based; conditions: in vivo, 2016 h
Mus musculus [32] = experiment: Anti-diabesity activity against db/db mouse assessed as increase in IOD of insulin in pancreas at 25 nmol/kg, sc administered every 2 days for 12 weeks by immunohistochemistry; type: functional, organism-based
[33] = Toxicity in Sprague-Dawley rat assessed as induction of Pica behaviour by measuring kaolin intake at 25 nmol/kg, ip measured after 24 hrs; type: organism-based; conditions: in vivo

SMILES | MRT [1] [h] | Activity (BRIN-BD11) | Activity (Mus musculus [2]) | inhibition in vivo at 0.025 µmol/kg (Mus musculus [3]) [%] | Activity (Mus musculus [4]) | Activity [5] | Activity (Mus musculus [6]) | Activity [7] | Activity (Mus musculus [8]) | Activity (Mus musculus [9]) | inhibition in vivo at 0.1 µmol/kg (Mus musculus [10]) [%] | Activity (Mus musculus [11]) | Cmax [12] [ng/mL] | Activity (Mus musculus [13]) | Activity [14] | Activity [15] | Activity (Mus musculus [16]) | Activity (Mus musculus [17]) | inhibition in vivo at 0.025 µmol/kg (Mus musculus [18]) [%] | Activity [19] | further results
CCCC[C@H](NC(=O)[C@H](Cc1ccc(CS(=O)(=O)O)cc1)NC(=O)[C@H](CC(=O)O)NC(=O)COCCOCCNC(=O)COCCOCCNC(=O)[C@H](CCCNC(=N)N)NC(=O)CNC(=O)[C@H](CCCCN)NC(=O)[C@@H](NC(=O)[C@H](CC(C)C)NC(=O)[C@H](Cc1c[nH]c2ccccc12)NC(=O)[C@H](C)NC(=O)[C@@H](NC(=O)[C@H](Cc1ccccc1)NC(=O)[C@H](CCC(=O)O)NC(=O)[C@H](CCCCNC(=O)COCCOCCNC(=O)COCCOCCNC(=O)CC[C@H](NC(=O)CCCCCCCCCCCCCCCCC(=O)O)C(=O)O)NC(=O)[C@H](C)NC(=O)[C@H](C)NC(=O)[C@H](CCC(N)=O)NC(=O)CNC(=O)[C@H](CCC(=O)O)NC(=O)[C@H](CC(C)C)NC(=O)[C@H](Cc1ccc(O)cc1)NC(=O)[C@H](CO)NC(=O)[C@H](CO)NC(=O)[C@@H](NC(=O)[C@H](CC(=O)O)NC(=O)[C@H](CO)NC(=O)[C@@H](NC(=O)[C@H](Cc1ccccc1)NC(=O)[C@@H](NC(=O)CNC(=O)[C@H](CCC(=O)O)NC(=O)[C@H](C)NC(=O)[C@@H](N)Cc1cnc[nH]1)[C@@H](C)O)[C@@H](C)O)C(C)C)[C@@H](C)CC)C(C)C)C(=O)NCC(=O)N[C@@H](Cc1c[nH]c2ccccc12)C(=O)N[C@@H](CCCC)C(=O)N(C)[C@H](CC(=O)O)C(=O)N(C)[C@@H](Cc1ccccc1)C(N)=O | 14.7 | Dde | Active | 17.9 | Active | Non-Toxic | Active | Non-Toxic | Active | Active | 19.2 | Active | 341 | Active | Non-Toxic | Non-Toxic | Active | Active | 27.3 | Non-Toxic | EC50 [20]: 1.25 nM; Activity (Mus musculus [21]): Active; Activity (Mus musculus [22]): Active; Activity (Mus musculus [23]): Active; Activity [24]: Non-Toxic; AUC(0-inf) [25]: 6050 ng·h/mL; Activity (Mus musculus [26]): Active; Activity (Mus musculus [27]): Dde; Activity [28]: Non-Toxic; Activity (Mus musculus [29]): Active; half-life [30]: 6.3 h; Activity [31]: Non-Toxic; Activity (Mus musculus [32]): Active; Activity [33]: Non-Toxic
CCCC[C@H](NC(=O)[C@H](Cc1ccc(CS(=O)(=O)O)cc1)NC(=O)[C@H](CC(=O)O)NC(=O)COCCOCCNC(=O)COCCOCCNC(=O)[C@H](CCCCN)NC(=O)CNC(=O)[C@H](CCCCN)NC(=O)[C@@H](NC(=O)[C@H](CC(C)C)NC(=O)[C@H](Cc1c[nH]c2ccccc12)NC(=O)[C@H](CCC(=O)O)NC(=O)[C@@H](NC(=O)[C@H](Cc1ccccc1)NC(=O)[C@H](CCC(=O)O)NC(=O)[C@H](CCCCNC(=O)COCCOCCNC(=O)COCCOCCNC(=O)CC[C@H](NC(=O)CCCCCCCCCCCCCCCCC(=O)O)C(=O)O)NC(=O)[C@H](C)NC(=O)[C@H](C)NC(=O)[C@H](CCC(=O)O)NC(=O)[C@H](CCC(=O)O)NC(=O)[C@H](CCC(=O)O)NC(=O)[C@H](CC(C)C)NC(=O)[C@@H](NC(=O)[C@H](CCC(=O)O)NC(=O)[C@@H](NC(=O)[C@@H](NC(=O)[C@H](CC(=O)O)NC(=O)[C@H](CC(N)=O)NC(=O)[C@@H](NC(=O)[C@H](Cc1ccc(O)cc1)NC(=O)[C@@H](NC(=O)CNC(=O)[C@H](CCC(=O)O)NC(=O)C(C)(C)NC(=O)[C@@H](N)Cc1cnc[nH]1)[C@@H](C)O)[C@@H](C)O)C(C)C)[C@@H](C)O)[C@@H](C)O)[C@@H](C)CC)[C@@H](C)CC)C(=O)NCC(=O)N[C@@H](Cc1c[nH]c2ccccc12)C(=O)N[C@@H](CCCC)C(=O)N(C)[C@H](CC(=O)O)C(=O)N(C)[C@@H](Cc1ccccc1)C(N)=O | 25.9 | Dde | Active | 21.2 | Active | Non-Toxic | Active | Non-Toxic | Active | Active | 21.4 | Active | 461 | Active | Non-Toxic | Non-Toxic | Active | Active | 29.8 | Non-Toxic | EC50 [20]: 0.83 nM; Activity (Mus musculus [21]): Active; Activity (Mus musculus [22]): Active; Activity (Mus musculus [23]): Active; Activity [24]: Non-Toxic; AUC(0-inf) [25]: 17600 ng·h/mL; Activity (Mus musculus [26]): Active; Activity (Mus musculus [27]): Dde; Activity [28]: Non-Toxic; Activity (Mus musculus [29]): Active; half-life [30]: 9.1 h; Activity [31]: Non-Toxic; Activity (Mus musculus [32]): Active; Activity [33]: Non-Toxic
